Test results taken from patent US20240398764A1, “METHODS OF TREATING DISEASES ASSOCIATED WITH SENESCENT CELL ACCUMULATION” (University of Florida Research Foundation, Incorporated, priority 2021, published 2024).

Legend:
[1] = test system: IR-induced senescent human umbilical vein endothelial cells (IR-SnC HUVEC); assay: Viability of IR-SnC HUVEC; type: cell-based; details: 72 hr incubation; vs ABT263
Experimental: (§1) FIGS. 3A to 3B depicts viability of non-SnC human umbilical vein endothelial cells (HUVEC) and IR-induced SnC HUVEC treated with varying concentrations of ABT263 (FIG. 3A) or 753b (FIG. 3B). FIGS. 3C to 3D depict viability of non-SnC renal epithelial cells (REC), IR-induced SnC REC, and replicative senescent REC treated with varying concentrations of ABT263 (FIG. 3C) or 753b (FIG. 3D).
(§2) The viability of Non-SnC HUVEC, Non-SnC REC, IR-SnC HUVEC, IR-SnC REC, and Rep-SnC REC was measured 72 hr after they were incubated with increasing concentrations of 753b or ABT263 compared to cells/platelets with vehicle.

[2] = Hepatic fat accumulation in the STAM model (oil red staining, hepatic triglyceride); type: in vivo, C57BL6 mice; details: STZ/HFD mice; 5 mg/kg twice a week IP; postnatal day 90
Experimental: Scale bar: […]. FIG. 7B depicts percentage of oil red^+ area/field of the images depicted in FIG. 7A. Values represented means±SD. *p<0.05. […] Values represented means±SD. *p<0.05.
Experimental design: C57BL6 mice were injected with Streptozotocin (STZ) at postnatal day 2 to induce diabetes and then fed with HFD from postnatal day 30 till the end of the experiments (FIG. 5). Half of the mice started receiving vehicle and the others receiving 753b (5 mg/kg) treatment on postnatal day 45 twice a week by IP injection till the end of the experiments. A group of the mice were euthanized at postnatal day 90 (or day 45 after the initiation of the treatment) for analysis of senescent cell accumulation and steatosis. Another group of the mice were euthanized at postnatal day 150 (or day 105 after the initiation of the treatment) for analysis of liver fibrosis and cancer.
753b administration represses hepatic fat accumulation in the STAM model. The liver tissues were collected from mice at postnatal day 90 (p90 or 45 days after treatment) for the analyses. […] Quantification of oil red stained images was performed from 5 livers per group (FIG. 7B). […] Quantification was performed from 5 livers per group and was expressed as means±SD.

[3] = test system: normal non-senescent REC (Non-SnC REC); assay: Viability of Non-SnC REC; type: cell-based; details: 72 hr incubation; vs ABT263
Experimental: as §1, §2

[4] = molecular target: Bcl-2 (Homo sapiens, UniProt P10415); assay: Immunoblot of Bcl-2 degradation in WI-38 fibroblast cells (Non-SnCs and IR-SnCs); type: cell-based; design: degradation of Bcl-xl and Bcl-2 in non-senescent WI-38 fibroblast cells (Non-SnCs) treated with varying concentrations of 753b; endogenous in cells; host or cells: WI-38 fibroblasts (non-senescent and ionizing-radiation-induced senescent); details: different concentrations, 16 h, dose-dependent
Sequence of Bcl-2 (P10415 whole entry): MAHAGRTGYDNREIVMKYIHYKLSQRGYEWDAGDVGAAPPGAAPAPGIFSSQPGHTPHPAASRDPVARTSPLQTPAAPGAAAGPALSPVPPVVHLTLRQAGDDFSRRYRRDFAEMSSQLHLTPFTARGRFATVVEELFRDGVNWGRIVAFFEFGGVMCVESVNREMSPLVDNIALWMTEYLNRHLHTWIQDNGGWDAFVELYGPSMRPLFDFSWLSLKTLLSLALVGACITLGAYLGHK
Text: (§3) FIG. 2A depicts immunoblots showing degradation of Bcl-xl and Bcl-2 in non-senescent WI-38 fibroblast cells (Non-SnCs) treated with varying concentrations of 753b. 3-actin was used as a loading control. FIG. 2B depicts viability of Non-SnCs treated with varying concentrations of 753b or ABT263. FIG. 2C depicts immunoblots showing degradation of Bcl-xl and Bcl-2 in ionizing radiation-induced senescent WI-38 fibroblast cells (IR-SnCs) treated with varying concentrations of 753b. 3-actin was used as a loading control. FIG. 2D depicts viability of IR-SnCs treated with varying concentrations of 753b or ABT263. FIG. 2E depicts immunoblots showing degradation of Bcl-xl and Bcl-2 in human platelets treated with varying concentrations of 753b. FIG. 2F depicts viability of human platelets treated with varying concentrations of 753b or ABT263.
(§4) The potency of 753b in degrading Bcl-xl/2 was evaluated by immunoblots after the cells or platelets were treated with different concentrations of 753b for 16 h ([…]). 753b is more cytotoxic to IR-SnCs but less toxic to Non-SnCs and platelets. The viability of Non-SnCs, IR-SnCs and platelets was measured 72 hr (Non-SnCs and IR-SnCs) and 48 hr (platelets) after they were incubated with increasing concentrations of 753b or ABT263 compared to cells/platelets with vehicle.

[5] = molecular target: Bcl-xl (Homo sapiens, UniProt Q07817); assay: Immunoblot of Bcl-xl degradation in WI-38 fibroblast cells (Non-SnCs and IR-SnCs); type: cell-based; design: degradation of Bcl-xl and Bcl-2 in non-senescent WI-38 fibroblast cells (Non-SnCs) treated with varying concentrations of 753b; endogenous in cells; host or cells: WI-38 fibroblasts (non-senescent and ionizing-radiation-induced senescent); details: different concentrations, 16 h, dose-dependent
Sequence of Bcl-xl (Q07817 whole entry): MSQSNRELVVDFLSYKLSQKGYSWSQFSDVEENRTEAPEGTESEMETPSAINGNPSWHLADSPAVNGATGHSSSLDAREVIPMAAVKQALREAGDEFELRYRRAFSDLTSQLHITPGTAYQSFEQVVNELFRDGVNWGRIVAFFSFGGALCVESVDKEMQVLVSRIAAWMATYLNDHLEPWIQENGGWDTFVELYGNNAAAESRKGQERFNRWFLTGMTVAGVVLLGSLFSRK
Text: as §3, §4

[6] = Tumorigenesis in the STAM model (MRI); type: in vivo, C57BL6 mice; details: STZ/HFD mice; 5 mg/kg twice a week IP; postnatal day 150
Experimental: FIG. 10A depicts images of livers of STZ/HFD mice treated with vehicle control or 753b (top) and MRIs of T1 pre-contrast and T2-weighted images of corresponding livers (bottom). Tumor lesions are indicated by yellow arrows. […] FIG. 10C depicts a Western blot of Gpc3 in livers of STZ/HFD mice treated with vehicle control or 753b. Actin was used as a loading control.
Experimental design: C57BL6 mice were injected with Streptozotocin (STZ) at postnatal day 2 to induce diabetes and then fed with HFD from postnatal day 30 till the end of the experiments (FIG. 5). Half of the mice started receiving vehicle and the others receiving 753b (5 mg/kg) treatment on postnatal day 45 twice a week by IP injection till the end of the experiments. […]
All the analyses were done in mice at postnatal day 150 (p150 or 105 days after treatment). […] Tumor lesions were determined based on hypointense signals in T1 but hyperintense signals in T2-weighted image (FIG. 10A). Tumor number and volume was quantified based on MRI T1 and T2-weighted images. Values were expressed as means±SD from 5 mice per group. Data for each mouse were analyzed based on 5-6 slices of images that covered whole liver lobes (FIG. 10B). […] Quantification analysis was performed for the ratio between liver and body weight in the STZ/HFD treated livers that were exposed to 753b or control compound (FIG. 10D). […]

[7] = test system: ionizing radiation (IR) induced senescent WI-38 fibroblast cells (IR-SnCs); assay: Viability of IR-induced senescent WI-38 fibroblast cells; type: cell-based; details: 72 hr incubation; vs ABT263
Text: as §3, §4

[8] = IR-induced senescent WI-38 fibroblast cells
[9] = non-senescent WI-38 fibroblast cells

Cc1ncsc1-c1ccc([C@H](C)NC(=O)[C@@H]2C[C@@H](O)CN2C(=O)[C@@H](NC(=O)CCCCCCC(=O)N2CCN(C[C@]3(C)CCC(c4ccc(Cl)cc4)=C(CN4CCN(c5ccc(C(=O)NS(=O)(=O)c6ccc(N[C@H](CCN7CCOCC7)CSc7ccccc7)c(S(=O)(=O)C(F)(F)F)c6)cc5)CC4)C3)CC2)C(C)(C)C)cc1 [Compound 753b]
Senolytic potency (viability) against IR-SnC HUVEC compared with ABT263 [1]: more potent senolytic agent
Hepatic fat accumulation (oil red staining) [2]: inhibited hepatic fat accumulation
Hepatic triglyceride level [2]: decreased levels of hepatic triglyceride
Toxicity (viability) to Non-SnC REC compared with ABT263 [3]: less toxic
Bcl-2 degradation in IR-SnCs [4, 8]: degrades Bcl-xl and Bcl-2 in Non-SnCs and IR-SnCs
Bcl-2 degradation in Non-SnCs [4, 9]: degrades Bcl-xl and Bcl-2 in Non-SnCs and IR-SnCs
Bcl-xl degradation in IR-SnCs [5, 8]: degrades Bcl-xl and Bcl-2 in Non-SnCs and IR-SnCs
Bcl-xl degradation in Non-SnCs [5, 9]: degrades Bcl-xl and Bcl-2 in Non-SnCs and IR-SnCs
Tumorigenesis in the liver [6]: reduces tumorigenesis
Senolytic potency (viability) against IR-SnCs compared with ABT263 [7]: more potent senolytic agent
